Assay [1] can be described thus: Inhibition of Smo in mouse Shh Light2 cells assessed as inhibition of SAG-induced Hh pathway activity by measuring SAG-EC50 at 50 nM measured after 36 hrs by Gli-luciferase reporter gene assay (Rvb = 2.93 nM).
The nature of assay [2]: Inhibition of Smo in mouse Shh Light2 cells assessed as inhibition of SAG-induced Hh pathway activity by measuring SAG-EC50 at 100 nM measured after 36 hrs by Gli-luciferase reporter gene assay (Rvb = 2.93 nM).
Assay [3] can be described thus: Inhibition of Smo in mouse Shh Light2 cells assessed as inhibition of SAG-induced Hh pathway activity by measuring SAG-EC50 at 500 nM measured after 36 hrs by Gli-luciferase reporter gene assay (Rvb = 2.93 nM).

With `Cc1ccc2c(n1)[C@H]([C@@H](C)C(=O)Nc1ccc(Cl)c(-c3nc4ccccc4n3C)c1)CC[C@H]2C`, the EC50 was 24 nM in assay [1], 47 nM in assay [2] and 137 nM in assay [3].

The record behind these values is BindingDB's records for doi:10.1021/acs.jmedchem.6b01247 (University of Chinese Academy of Sciences, 2016).
